{"source": "paper PMC11108826", "about": "(Synthetic and Systems Biotechnology, 2024)", "molecular_target": "T1, ORF-L16 (Saccharopolyspora spinosa, UniProt Q9ALP2)", "T1 sequence (Q9ALP2 1-278)": "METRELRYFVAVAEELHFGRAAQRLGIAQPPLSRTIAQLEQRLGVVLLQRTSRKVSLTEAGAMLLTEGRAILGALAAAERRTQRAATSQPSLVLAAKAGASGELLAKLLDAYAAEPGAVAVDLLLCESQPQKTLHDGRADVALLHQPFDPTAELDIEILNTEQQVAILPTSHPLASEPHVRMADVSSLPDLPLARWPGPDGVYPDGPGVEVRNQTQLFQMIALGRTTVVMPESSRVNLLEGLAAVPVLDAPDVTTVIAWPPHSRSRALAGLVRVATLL", "assay": "isothermal titration calorimetry", "type": "binding"}
{"smiles": "CC[C@H]1CCC[C@H](O[C@H]2CC[C@H](N(C)C)[C@@H](C)O2)[C@@H](C)C(=O)C2=C[C@@H]3[C@@H](C=C[C@@H]4C[C@@H](O[C@@H]5O[C@@H](C)[C@H](OC)[C@@H](OC)[C@H]5OC)C[C@@H]34)[C@@H]2CC(=O)O1", "note": "[spinosyn A]", "values": [{"measurement": "Kd", "value": "2.36 ± 0.04", "unit": "µM"}]}
